Consider 14 compounds from patent publication US20250215030A1, “STAT MODULATORS AND USES THEREOF” (Recludix Pharma, Inc., priority 2022, published 2025).

Experiment [1] has as its target T1, Recombinant STAT3 protein (STAT3(G127-I722)) (Homo sapiens, UniProt P40763).
T1 construct: STAT3(G127-I722)
Put plainly: STAT3 Fluorescence Polarization (FP) Assay. Particulars: STAT3(G127-I722) 25 nM, probe 5-FAM-GpYLPQTV-NH2 2 nM, 45-minute incubation. Type of experiment: binding. The procedure:
STAT3 Fluorescence Polarization (FP) Assay
An FP assay was developed to determine IC50 values for test substances. Recombinant STAT3 protein (STAT3(G127-I722)) at 25 nM was combined with a fluorescently labeled, phosphotyrosine peptide probe (5-FAM-GpYLPQTV-NH2) at 2 nM in FP buffer (10 mM HEPES pH 7.4, 50 mM NaCl, 1 mM EDTA, 0.05% Tween 20, 2 mM DTT). 50 μL of STAT3-probe mixture was added to serial diluted compounds in black, 96-well plates (Greiner BioOne 655076) to a final concentration of 1% DMSO. Reaction components were mixed, and FP was measured after 45-minute incubation at room temperature using a Tecan Spark multimode plate reader. FP signal (mP) was plotted against the log concentration of the test substances and IC50 values were calculated by nonlinear regression analysis using GraphPad Prism software. For STAT3 FP assay, A=≤100 nM; B=>100-1000 nM; C=>1-10 μM; and D=>10 μM.

In experiment [2] the target is T2, Recombinant STAT6 protein (STAT6(W123-T658)) (Homo sapiens, UniProt P42226).
T2 construct: STAT6(W123-T658)
T2 sequence (P42226 123-658): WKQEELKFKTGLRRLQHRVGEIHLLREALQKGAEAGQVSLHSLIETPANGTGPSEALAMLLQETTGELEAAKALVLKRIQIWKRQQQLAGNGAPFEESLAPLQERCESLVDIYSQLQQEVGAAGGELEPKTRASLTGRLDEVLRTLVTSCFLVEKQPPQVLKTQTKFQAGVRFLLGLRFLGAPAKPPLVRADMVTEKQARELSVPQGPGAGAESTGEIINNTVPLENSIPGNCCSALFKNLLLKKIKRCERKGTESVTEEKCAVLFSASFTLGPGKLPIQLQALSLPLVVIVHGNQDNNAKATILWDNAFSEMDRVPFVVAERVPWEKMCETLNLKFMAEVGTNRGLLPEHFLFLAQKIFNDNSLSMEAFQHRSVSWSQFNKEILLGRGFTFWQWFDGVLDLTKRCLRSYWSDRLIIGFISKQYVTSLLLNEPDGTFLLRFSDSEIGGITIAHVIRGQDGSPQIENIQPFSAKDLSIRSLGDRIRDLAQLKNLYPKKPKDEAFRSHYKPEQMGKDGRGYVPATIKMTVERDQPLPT
Put plainly: STAT6 Fluorescence Polarization (FP) Assay. Type of experiment: binding. Particulars: STAT6(W123-T658) 250 nM, probe 5-FAM-ApYKPFQDLI-NH2 2 nM, 45-minute incubation. The procedure: STAT6 Fluorescence Polarization (FP) Assay
An FP assay was developed to determine IC50 values for test substances. Recombinant STAT6 protein (STAT6(W123-T658)) at 250 nM was combined with a fluorescently labeled, phosphotyrosine peptide probe (5-FAM-ApYKPFQDLI-NH2) at 2 nM in FP buffer (10 mM HEPES pH 7.4, 50 mM NaCl, 1 mM EDTA, 0.05% Tween 20, 2 mM DTT). 50 μL of STAT6-probe mixture was added to serial diluted compounds in black, 96-well plates (Greiner BioOne 655076) to a final concentration of 1% DMSO. Reaction components were mixed, and FP was measured after 45-minute incubation at room temperature using a Tecan Spark multimode plate reader. FP signal (mP) was plotted against the log concentration of the test substances and IC50 values were calculated by nonlinear regression analysis using GraphPad Prism software. For STAT6 FP assay, A=≤300 nM; B=>300-3000 nM; C=>3-30 μM; and D=>30 μM.
A general note: Fluorescence polarisation rises when a labelled molecule tumbles more slowly, as on binding a larger partner.

As a reminder, the IC50 is the concentration that gives 50% inhibition.

T1 sequence (P40763 127-722, species assumed): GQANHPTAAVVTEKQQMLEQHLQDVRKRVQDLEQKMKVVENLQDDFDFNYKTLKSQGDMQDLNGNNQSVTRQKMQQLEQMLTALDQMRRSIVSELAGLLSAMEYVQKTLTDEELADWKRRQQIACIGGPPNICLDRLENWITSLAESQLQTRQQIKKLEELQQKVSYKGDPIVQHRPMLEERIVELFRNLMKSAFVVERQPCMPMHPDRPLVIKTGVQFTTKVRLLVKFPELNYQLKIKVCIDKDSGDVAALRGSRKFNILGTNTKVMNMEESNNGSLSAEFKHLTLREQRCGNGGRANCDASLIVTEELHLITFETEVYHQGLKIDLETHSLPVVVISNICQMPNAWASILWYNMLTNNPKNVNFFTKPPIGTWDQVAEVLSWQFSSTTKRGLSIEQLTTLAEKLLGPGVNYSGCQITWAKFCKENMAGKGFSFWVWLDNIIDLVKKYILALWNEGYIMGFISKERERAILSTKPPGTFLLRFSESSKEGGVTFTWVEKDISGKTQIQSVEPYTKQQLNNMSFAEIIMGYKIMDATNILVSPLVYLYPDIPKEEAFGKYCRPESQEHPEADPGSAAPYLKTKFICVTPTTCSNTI

As for `CN(C)c1ccncc1[C@H]1CN(C(=O)[C@@H]2CC[C@@H]3C[C@H]4C[C@H]4C[C@H](NC(=O)c4cc5cc([C@H](F)P(=O)(O)O)ccc5s4)C(=O)N32)C2(CC2)C1` (single isomer, unassigned) [Example 435], the IC50 in experiment [1] is < 100 nM; in experiment [2] it was ≤ 300 nM.
As to `O=C(N[C@H]1C[C@@H]2C[C@@H]2C[C@H]2CC[C@@H](C(=O)N3CC(c4cnccc4F)C3)N2C1=O)c1cc2cc(CP(=O)(O)O)ccc2s1` [Example 247, ((2-(((3S,6S,7aS,8aR,9aR)-3-(3-(4-fluoropyridin-3-yl)azetidine-1-carbonyl)-5-oxodecahydro-1H-cyclopropa[d]pyrrolo[1,2-a]azocin-6-yl)carbamoyl)benzo[b]thiophen-5-yl)methyl)phosphonic acid], the figures for the concentration for half-maximal inhibition (IC50) in experiment [1] and in experiment [2] were < 100 nM and > 30000 nM, respectively.
In the same order, the values of “(difluoro(2-(((3S,6S,8aR,9aS,9bR)-3-(3-methoxy-3-(1-methyl-1H-imidazol-2-yl)azetidine-1-carbonyl)-8a-methyl-5-oxodecahydro-1H-cyclopropa[c]pyrrolo[1,2-a]azocin-6-yl)carbamoyl)benzo[b]thiophen-5-yl)methyl)phosphonic acid [Example 241]” are 100 to 1000 nM and 3000 to 30000 nM.
The matching figures for `CC(=O)N1C[C@H](NC(=O)[C@@H]2CC[C@@H]3C[C@H]4C[C@H]4C[C@H](NC(=O)c4cc5cc(C(F)(F)P(=O)(O)O)ccc5s4)C(=O)N32)[C@@H](O)C1` [Example 9, ((2-(((3S,6S,7aS,8aR,9aR)-3-(((3S,4S)-1-acetyl-4-hydroxypyrrolidin-3-yl)carbamoyl)-5-oxodecahydro-1H-cyclopropa[d]pyrrolo[1,2-a]azocin-6-yl)carbamoyl)benzo[b]thiophen-5-yl)difluoromethyl)phosphonic acid]: 100 to 1000 nM and 300 to 3000 nM.
The matching figures for `Cc1cc(C2CN(C(=O)[C@@H]3CC[C@@H]4C[C@H]5C[C@H]5C[C@H](NC(=O)c5cc6cc(C(F)P(=O)(O)O)ccc6s5)C(=O)N43)C2)no1` (stereo partly drawn) [Example 337, (fluoro(2-(((3S,6S,7aS,8aR,9aR)-3-(3-(5-methylisoxazol-3-yl)azetidine-1-carbonyl)-5-oxodecahydro-1H-cyclopropa[d]pyrrolo[1,2-a]azocin-6-yl)carbamoyl)benzo[b]thiophen-5-yl)methyl)phosphonic acid]: < 100 nM and 3000 to 30000 nM.
For the compound `CCc1ccncc1C1CN(C(=O)[C@@H]2CC[C@@H]3C[C@@H]4C[C@@H]4C[C@H](NC(=O)c4cc5cc(CP(=O)(O)O)ccc5s4)C(=O)N32)C1` [Example 343, ((2-(((3S,6S,7aR,8aS,9aR)-3-(3-(4-ethylpyridin-3-yl)azetidine-1-carbonyl)-5-oxodecahydro-1H-cyclopropa[d]pyrrolo[1,2-a]azocin-6-yl)carbamoyl)benzo[b]thiophen-5-yl)methyl)phosphonic acid], the IC50 in experiment [1] is < 100 nM; in experiment [2], > 30000 nM.
The matching figures for `O=C(N[C@H]1C[C@@H]2C[C@@H]2C[C@H]2CC[C@@H](C(=O)N3CCN(C(=O)c4cn[nH]c4)CC3)N2C1=O)c1cc2cc(C(F)(F)P(=O)(O)O)ccc2s1` [Compound 104, ((2-(((3S,6S,7aS,8aR,9aR)-3-(4-(1H-pyrazole-4-carbonyl)piperazine-1-carbonyl)-5-oxodecahydro-1H-cyclopropa[d]pyrrolo[1,2-a]azocin-6-yl)carbamoyl)benzo[b]thiophen-5-yl)difluoromethyl)phosphonic acid]: < 100 nM and 300 to 3000 nM.
The matching figures for `COC[C@@H]1CCN1c1ccncc1C1CN(C(=O)[C@@H]2CC[C@@H]3C[C@H]4C[C@H]4C[C@H](NC(=O)c4cc5cc([C@@H](F)P(=O)(O)O)ccc5s4)C(=O)N32)C1` (single isomer, unassigned) [Example 410]: 1000 to 10000 nM and 3000 to 30000 nM.
As for `O=C(N[C@H]1C[C@H]2[C@@H](C[C@H]3CC[C@@H](C(=O)N4CC(c5cccnc5)C4)N3C1=O)C2(F)F)c1cc2cc(C(F)(F)P(=O)(O)O)ccc2s1` [Compound 31, ((2-(((3S,6S,7aS,8aR,9aR)-8,8-difluoro-5-oxo-3-(3-(pyridin-3-yl)azetidine-1-carbonyl)decahydro-1H-cyclopropa[d]pyrrolo[1,2-a]azocin-6-yl)carbamoyl)benzo[b]thiophen-5-yl)difluoromethyl)phosphonic acid], the IC50 in experiment [1] was < 100 nM; in experiment [2], 3000 to 30000 nM.
In the same order, the values of `C[C@H]1COCCN1C(=O)C1CN(C(=O)[C@@H]2CC[C@@H]3C[C@H]4C[C@H]4C[C@H](NC(=O)c4cc5cc(C(F)(F)P(=O)(O)O)ccc5s4)C(=O)N32)C1` [Compound 14, (difluoro(2-(((3S,6S,7aS,8aR,9aR)-3-(3-((S)-3-methylmorpholine-4-carbonyl)azetidine-1-carbonyl)-5-oxodecahydro-1H-cyclopropa[d]pyrrolo[1,2-a]azocin-6-yl)carbamoyl)benzo[b]thiophen-5-yl)methyl)phosphonic acid] are < 100 nM and 3000 to 30000 nM.
The matching figures for `O=C(N[C@H]1C[C@@H]2C[C@@H]2C[C@H]2CC[C@@H](C(=O)N3C[C@@H]4[C@H]3CCN4c3cccnc3)N2C1=O)c1cc2cc(C(F)P(=O)(O)O)ccc2s1` (stereo partly drawn) [Example 296, (fluoro(2-(((3S,6S,7aS,8aR,9aR)-5-oxo-3-((1R,5R)-2-(pyridin-3-yl)-2,6-diazabicyclo[3.2.0]heptane-6-carbonyl)decahydro-1H-cyclopropa[d]pyrrolo[1,2-a]azocin-6-yl)carbamoyl)benzo[b]thiophen-5-yl)methyl)phosphonic acid]: < 100 nM and 300 to 3000 nM.
As for `O=C(N[C@H]1C[C@H]2C[C@H]2C[C@H]2CC[C@@H](C(=O)N[C@H]3CN(c4cccnc4)C[C@@H]3F)N2C1=O)c1cc2cc(C(F)(F)P(=O)(O)O)ccc2s1` [Compound 128, (difluoro(2-(((3S,6S,7aR,8aS,9aR)-3-(((3S,4S)-4-fluoro-1-(pyridin-3-yl)pyrrolidin-3-yl)carbamoyl)-5-oxodecahydro-1H-cyclopropa[d]pyrrolo[1,2-a]azocin-6-yl)carbamoyl)benzo[b]thiophen-5-yl)methyl)phosphonic acid], the results for the half-maximal inhibitory concentration (IC50) in experiment [1] and in experiment [2] were < 100 nM and 300 to 3000 nM, respectively.
The matching figures for `CN1CCN(c2ccncc2C2CN(C(=O)[C@@H]3CC[C@@H]4C[C@H]5C[C@H]5C[C@H](NC(=O)c5cc6cc([C@H](F)P(=O)(O)O)ccc6s5)C(=O)N43)C2)CC1` (single isomer, unassigned) [Example 403]: < 100 nM and 3000 to 30000 nM.
As to `COc1ccncc1C1CN(C(=O)[C@@H]2CC[C@@H]3C[C@H]4C[C@H]4C[C@H](NC(=O)c4cc5cc(C(F)P(=O)(O)O)ccc5s4)C(=O)N32)C1` (stereo partly drawn) [Example 272, (fluoro(2-(((3S,6S,7aS,8aR,9aR)-3-(3-(4-methoxypyridin-3-yl)azetidine-1-carbonyl)-5-oxodecahydro-1H-cyclopropa[d]pyrrolo[1,2-a]azocin-6-yl)carbamoyl)benzo[b]thiophen-5-yl)methyl)phosphonic acid], the IC50 in experiment [1] is < 100 nM; in experiment [2], 3000 to 30000 nM.
